# Numbers after ± are expanded uncertainties.
# Assay: an = ratio of the nth substance listed, in mol/kg
# Conditions: 298.15 K, 101 kPa, Liquid; for speed of sound: Sing-around technique in a fixed-path interferometer; for mass density: Vibrating tube method
compound,measurement,setting,value
[Cl][Mn][Cl] [manganese chloride] + C[S+](C)[O-],speed of sound,a1 = 0.04414,1486.7 ± 1.2 m/s
same,speed of sound,a1 = 0.0572,1487.5 ± 1.2 m/s
same,speed of sound,a1 = 0.06981,1488.2 ± 1.2 m/s
same,speed of sound,a1 = 0.08942,1489.2 ± 1.2 m/s
same,speed of sound,a1 = 0.1135,1490.3 ± 1.2 m/s
same,speed of sound,a1 = 0.1386,1491.4 ± 1.2 m/s
same,speed of sound,a1 = 0.1616,1492.1 ± 1.2 m/s
same,speed of sound,a1 = 0.19,1493.2 ± 1.2 m/s
same,speed of sound,a1 = 0.213,1494.1 ± 1.2 m/s
same,mass density,a1 = 0.04414,1100.11 ± 0.33 kg/m3
same,mass density,a1 = 0.0572,1101.48 ± 0.33 kg/m3
same,mass density,a1 = 0.06981,1102.79 ± 0.33 kg/m3
same,mass density,a1 = 0.08942,1104.86 ± 0.33 kg/m3
same,mass density,a1 = 0.1135,1107.39 ± 0.33 kg/m3
same,mass density,a1 = 0.1386,1110.03 ± 0.33 kg/m3
same,mass density,a1 = 0.1616,1112.45 ± 0.33 kg/m3
same,mass density,a1 = 0.19,1115.49 ± 0.33 kg/m3
same,mass density,a1 = 0.213,1117.93 ± 0.33 kg/m3
C[S+](C)[O-] [dimethyl sulfoxide] + [Ni+2].[O-][Cl+3]([O-])([O-])[O-].[O-][Cl+3]([O-])([O-])[O-],speed of sound,a2 = 0,1484.1 ± 1.2 m/s
same,mass density,a2 = 0,1095.19 ± 0.37 kg/m3
"CC(=O)N(C)C [N,N-dimethylethanamide] + [Cl][Mn][Cl]",speed of sound,a2 = 0,1455.4 ± 1.2 m/s
same,mass density,a2 = 0,936.233 ± 0.25 kg/m3
[Co+2].[O-][Cl+3]([O-])([O-])[O-].[O-][Cl+3]([O-])([O-])[O-] [cobalt(II) perchlorate] + CC(=O)N(C)C,speed of sound,a1 = 0.029,1459.3 ± 1.2 m/s
same,speed of sound,a1 = 0.04235,1461 ± 1.2 m/s
same,speed of sound,a1 = 0.05501,1462.7 ± 1.2 m/s
same,speed of sound,a1 = 0.08591,1466.7 ± 1.2 m/s
same,speed of sound,a1 = 0.1144,1470.4 ± 1.2 m/s
same,speed of sound,a1 = 0.1415,1474 ± 1.2 m/s
same,speed of sound,a1 = 0.1692,1477.8 ± 1.2 m/s
same,speed of sound,a1 = 0.1973,1481.6 ± 1.2 m/s
same,speed of sound,a1 = 0.2214,1484.9 ± 1.2 m/s
same,mass density,a1 = 0.029,942.693 ± 0.32 kg/m3
same,mass density,a1 = 0.04235,945.675 ± 0.32 kg/m3
same,mass density,a1 = 0.05501,948.505 ± 0.32 kg/m3
same,mass density,a1 = 0.08591,955.413 ± 0.32 kg/m3
same,mass density,a1 = 0.1144,961.778 ± 0.31 kg/m3
same,mass density,a1 = 0.1415,967.838 ± 0.31 kg/m3
same,mass density,a1 = 0.1692,974.036 ± 0.31 kg/m3
same,mass density,a1 = 0.1973,980.3 ± 0.31 kg/m3
same,mass density,a1 = 0.2214,985.701 ± 0.31 kg/m3
[Cl][Ni][Cl] [nickel chloride (NiCl2)] + C[S+](C)[O-],speed of sound,a1 = 0.01103,1485.1 ± 1.2 m/s
same,speed of sound,a1 = 0.01653,1485.5 ± 1.2 m/s
same,speed of sound,a1 = 0.02222,1486 ± 1.2 m/s
same,speed of sound,a1 = 0.02764,1486.3 ± 1.2 m/s
same,speed of sound,a1 = 0.03328,1486.7 ± 1.2 m/s
same,speed of sound,a1 = 0.03812,1487.1 ± 1.2 m/s
same,speed of sound,a1 = 0.04374,1487.4 ± 1.2 m/s
same,speed of sound,a1 = 0.04953,1487.8 ± 1.2 m/s
same,speed of sound,a1 = 0.05501,1488.2 ± 1.2 m/s
same,mass density,a1 = 0.01103,1096.81 ± 0.34 kg/m3
same,mass density,a1 = 0.01653,1097.61 ± 0.34 kg/m3
same,mass density,a1 = 0.02222,1098.43 ± 0.34 kg/m3
same,mass density,a1 = 0.02764,1099.21 ± 0.34 kg/m3
same,mass density,a1 = 0.03328,1100.03 ± 0.34 kg/m3
same,mass density,a1 = 0.03812,1100.72 ± 0.34 kg/m3
same,mass density,a1 = 0.04374,1101.53 ± 0.34 kg/m3
same,mass density,a1 = 0.04953,1102.36 ± 0.34 kg/m3
same,mass density,a1 = 0.05501,1103.13 ± 0.34 kg/m3
C[S+](C)[O-] [dimethyl sulfoxide] + [Co+2].[O-][Cl+3]([O-])([O-])[O-].[O-][Cl+3]([O-])([O-])[O-],speed of sound,a2 = 0,1484.1 ± 1.2 m/s
same,mass density,a2 = 0,1095.19 ± 0.37 kg/m3
C[S+](C)[O-] [dimethyl sulfoxide] + [Cl][Mn][Cl],speed of sound,a2 = 0,1484.1 ± 1.2 m/s
same,mass density,a2 = 0,1095.19 ± 0.33 kg/m3
[Cl][Mn][Cl] [manganese chloride] + CC(=O)N(C)C,speed of sound,a1 = 0.05753,1458.5 ± 1.2 m/s
same,speed of sound,a1 = 0.1146,1461.2 ± 1.2 m/s
same,speed of sound,a1 = 0.1691,1463.8 ± 1.2 m/s
same,speed of sound,a1 = 0.222,1466.5 ± 1.2 m/s
same,speed of sound,a1 = 0.2756,1469.4 ± 1.2 m/s
same,speed of sound,a1 = 0.3266,1472.2 ± 1.2 m/s
same,speed of sound,a1 = 0.3813,1475.5 ± 1.2 m/s
same,speed of sound,a1 = 0.433,1478.6 ± 1.2 m/s
same,mass density,a1 = 0.05753,942.406 ± 0.25 kg/m3
same,mass density,a1 = 0.1146,948.611 ± 0.25 kg/m3
same,mass density,a1 = 0.1691,954.924 ± 0.25 kg/m3
same,mass density,a1 = 0.222,961.136 ± 0.25 kg/m3
same,mass density,a1 = 0.2756,967.302 ± 0.25 kg/m3
same,mass density,a1 = 0.3266,973.327 ± 0.24 kg/m3
same,mass density,a1 = 0.3813,979.1 ± 0.24 kg/m3
same,mass density,a1 = 0.433,984.866 ± 0.24 kg/m3
[Cl][Cu][Cl] [copper chloride] + CC(=O)N(C)C,speed of sound,a1 = 0.04793,1456.2 ± 1.2 m/s
same,speed of sound,a1 = 0.09502,1457.1 ± 1.2 m/s
same,speed of sound,a1 = 0.139,1458 ± 1.2 m/s
same,speed of sound,a1 = 0.1852,1458.9 ± 1.2 m/s
same,speed of sound,a1 = 0.2306,1459.9 ± 1.2 m/s
same,speed of sound,a1 = 0.2755,1460.9 ± 1.2 m/s
same,speed of sound,a1 = 0.3194,1461.9 ± 1.2 m/s
same,speed of sound,a1 = 0.364,1462.9 ± 1.2 m/s
same,mass density,a1 = 0.04793,941.347 ± 0.25 kg/m3
same,mass density,a1 = 0.09502,946.26 ± 0.25 kg/m3
same,mass density,a1 = 0.139,950.849 ± 0.25 kg/m3
same,mass density,a1 = 0.1852,955.662 ± 0.24 kg/m3
same,mass density,a1 = 0.2306,960.406 ± 0.24 kg/m3
same,mass density,a1 = 0.2755,965.086 ± 0.24 kg/m3
same,mass density,a1 = 0.3194,969.661 ± 0.24 kg/m3
same,mass density,a1 = 0.364,974.319 ± 0.24 kg/m3
"CC(=O)N(C)C [N,N-dimethylethanamide] + [Cl-].[Cl-].[Zn+2]",speed of sound,a2 = 0,1455.4 ± 1.2 m/s
same,mass density,a2 = 0,936.22 ± 0.25 kg/m3
[Ni+2].[O-][Cl+3]([O-])([O-])[O-].[O-][Cl+3]([O-])([O-])[O-] [nickel perchlorate] + CC(=O)N(C)C,speed of sound,a1 = 0.03452,1460.5 ± 1.2 m/s
same,speed of sound,a1 = 0.06515,1464.3 ± 1.2 m/s
same,speed of sound,a1 = 0.096,1468.2 ± 1.2 m/s
same,speed of sound,a1 = 0.1279,1472.3 ± 1.2 m/s
same,speed of sound,a1 = 0.1604,1476.5 ± 1.2 m/s
same,speed of sound,a1 = 0.1898,1480.4 ± 1.2 m/s
same,speed of sound,a1 = 0.2198,1484.6 ± 1.2 m/s
same,speed of sound,a1 = 0.2504,1489 ± 1.2 m/s
same,mass density,a1 = 0.03452,943.693 ± 0.32 kg/m3
same,mass density,a1 = 0.06515,950.677 ± 0.32 kg/m3
same,mass density,a1 = 0.096,957.709 ± 0.32 kg/m3
same,mass density,a1 = 0.1279,964.983 ± 0.32 kg/m3
same,mass density,a1 = 0.1604,972.395 ± 0.31 kg/m3
same,mass density,a1 = 0.1898,979.089 ± 0.31 kg/m3
same,mass density,a1 = 0.2198,985.93 ± 0.31 kg/m3
same,mass density,a1 = 0.2504,992.904 ± 0.31 kg/m3
[Cl-].[Cl-].[Zn+2] [zinc chloride] + CC(=O)N(C)C,speed of sound,a1 = 0.05996,1456.9 ± 1.2 m/s
same,speed of sound,a1 = 0.1117,1457.9 ± 1.2 m/s
same,speed of sound,a1 = 0.1487,1458.7 ± 1.2 m/s
same,speed of sound,a1 = 0.1875,1459.5 ± 1.2 m/s
same,speed of sound,a1 = 0.223,1460.3 ± 1.2 m/s
same,speed of sound,a1 = 0.2595,1461.2 ± 1.2 m/s
same,speed of sound,a1 = 0.2955,1462.1 ± 1.2 m/s
same,speed of sound,a1 = 0.3148,1462.5 ± 1.2 m/s
same,mass density,a1 = 0.05996,942.244 ± 0.25 kg/m3
same,mass density,a1 = 0.1117,947.615 ± 0.25 kg/m3
same,mass density,a1 = 0.1487,951.455 ± 0.24 kg/m3
same,mass density,a1 = 0.1875,955.473 ± 0.24 kg/m3
same,mass density,a1 = 0.223,959.152 ± 0.24 kg/m3
same,mass density,a1 = 0.2595,962.944 ± 0.24 kg/m3
same,mass density,a1 = 0.2955,966.681 ± 0.24 kg/m3
same,mass density,a1 = 0.3148,968.679 ± 0.24 kg/m3
